test system: MiaPaca-2 cells; assay: MiaPaca-2 Cell Proliferation Assay; type: cell-based; settings: Homo sapiens, MIA PaCa-2; Table 4; read-out: MiaPaca-2 IC50
Experimental: MiaPaca-2 cells (catalog #CRL-1420) are obtained from the American Type Culture Collect (ATTC, Manassas, VA). Briefly, cells were grown in DMEM supplemented with 10% characterized fetal bovine serum (Invitrogen, Carlsbad, CA), 2.5% New Zealand sourced horse serum and 1% Penicillin/Streptomycin/L-Glutamine at 37° C., 5% CO2, and 95% humidity. Cells are expanded until reaching 70-95% confluency at which point they are sub-cultured or harvested for assay use. For assays completed in 96-well plates, a serial dilution of test compound is dispensed into a 96-well black clear bottom plate in triplicate. Three thousand cells are added per well in 200 μL complete growth medium in the 96-well plate. Plates are incubated for 67 to 72 h at 37° C., 5% CO2, and 95% humidity. At the end of the incubation, 40 μL of a […] solution of resazurin (Sigma, St. Louis, MO) in PBS is added to each well of the plate and plates are incubated for an additional 5 to 6 hours at 37° C., 5% CO2, and 95% humidity. For 384-well assays, a threefold, 8-point serial dilution of compound was spotted column wise into a 384 well black, clear bottom, tissue culture treated plate using the Beckman Coulter Echo 650. Likewise, a threefold, 8-point serial dilution of cobimetinib was spotted row wise into the 384 well black, clear bottom plate containing compound. DMSO concentration was constant across all wells at 0.4%. Seven hundred fifty cells are added per well in 50 μL complete growth medium in each 384-well plate. Plates are incubated for 67 to 72 h at 37° C., 5% CO2, and 95% humidity. At the end of the incubation, 10 μL of a 440 μM solution of resazurin (Sigma, St. Louis, MO) in PBS is added to each well of the plate and plates are incubated for an additional 4 to 6 h at 37° C., 5% CO2, and 95% humidity. Plates are read on a Synergy2 or equivalent reader (Biotek, Winooski VT) using an excitation of 540 nm and an emission of 600 nm. Data is analyzed using Prism software (Graphpad, San Diego, CA) to calculate IC50 values.

**Q.** With `Cc1ccc(NC(=O)N[C@@H]2CCc3ccccc32)cc1-c1cc(OCCO)nc(N2CCOCC2)c1` [reference compound] as the molecule, how does the IC50 read?
**A.** The IC50 was 1000 to 10000 nM.

**Q.** With `Cc1cc(F)c(NC(=O)Nc2cnn(C(C)(C)C)c2)cc1-c1cc(OCCN(C)C)nc(N2CCOCC2)c1` [reference compound] as the molecule, how does the IC50 read?
**A.** Its IC50 is 1000 to 10000 nM.

**Q.** Which IC50 does the source give for `CNC(=O)c1cc(-c2cc(-c3cc(NC(=O)Nc4ccnc(C(C)(C)C#N)c4)ccc3C)ccn2)ccn1` [reference compound] here?
**A.** Its IC50 is 500 to 1000 nM.

**Q.** For `CNC(=O)c1cc(-c2cnnc(-c3cc(NC(=O)N4CCC(C(C)(C)C)C4)ccc3C)c2)ccn1` (stereo not drawn) [reference compound], which IC50 is on record?
**A.** The IC50 was 1000 to 10000 nM.

same assay, conditions: Homo sapiens, MIA PaCa-2; Table 5; read-out: MiaPaca-2

**Q.** Which IC50 does the source give for `Cc1ccc2c(Nc3cccc(Cl)c3F)nccc2c1NC(=O)c1csc2c(N)ncnc12` [Belvarafenib, reference compound] here?
**A.** The IC50 was 1000 to 10000 nM.

test system: HCT-116 cells; assay: HCT-116 Cell Proliferation Assay; type: cell-based; settings: Homo sapiens, HCT-116; Table 4; read-out: HCT-116 IC50
Experimental: HCT-116 cells (catalog #CCL-247) are obtained from the American Type Culture Collect (ATCC, Manassas, VA). Briefly, cells are grown in McCoy's 5A supplemented with 10% characterized fetal bovine serum (Invitrogen, Carlsbad, CA) and 1% Penicillin/Streptomycin/L-Glutamine at 37° C., 5% CO2, and 95% humidity. Cells are expanded until reaching 70-95% confluency at which point they are sub-cultured or harvested for assay use. A serial dilution of test compound is dispensed into a 384-well black clear bottom plate in triplicate. 375 cells are added per well in 50 μL complete growth medium in the 384-well plate. Plates are incubated for 67 to 72 h at 37° C., 5% CO2, and 95% humidity. At the end of the incubation, 40 μL of a […] solution of resazurin (Sigma, St. Louis, MO) in PBS is added to each well of the plate and plates are incubated for an additional 4 to 5 hours at 37° C., 5% CO2, and 95% humidity. Plates are read on a Synergy2 or equivalent reader (Biotek, Winooski, VT) using an excitation of 540 nm and an emission of 600 nm. Data is analyzed using Prism software (Graphpad, San Diego, CA) to calculate IC50 values.

**Q.** With `Cc1ccc(NC(=O)Nc2cccc(C(F)(F)F)c2)cc1-c1cc(OCCO)nc(N2CCOCC2)c1` [reference compound] as the molecule, how does the IC50 read?
**A.** The IC50 was 100 to 500 nM.

**Q.** With `Cc1ccc(NC(=O)N[C@@H]2CCc3ccccc32)cc1-c1cc(OCCO)nc(N2CCOCC2)c1` [reference compound] as the molecule, how does the IC50 read?
**A.** Its IC50 is 1000 to 10000 nM.

**Q.** Which IC50 does the source give for `Cc1cc(F)c(NC(=O)Nc2cnn(C(C)(C)C)c2)cc1-c1cc(OCCN(C)C)nc(N2CCOCC2)c1` [reference compound] here?
**A.** The IC50 was 1000 to 10000 nM.

**Q.** `CC(=O)Nc1cc(-c2cc(-c3cc(NC(=O)Nc4ccc(C(F)(F)F)cc4)cnc3C)ccn2)ccn1` [reference compound] was tested. Which IC50 did it give?
**A.** Its IC50 is 1000 to 10000 nM.

**Q.** Which IC50 does the source give for `CNC(=O)c1cc(-c2cc(-c3cc(NC(=O)Nc4ccnc(C(C)(C)C#N)c4)ccc3C)ccn2)ccn1` [reference compound] here?
**A.** Its IC50 is 1000 to 10000 nM.

**Q.** For `CNC(=O)c1cc(-c2cnnc(-c3cc(NC(=O)N4CCC(C(C)(C)C)C4)ccc3C)c2)ccn1` (stereo not drawn) [reference compound], which IC50 is on record?
**A.** The IC50 was 1000 to 10000 nM.

**Q.** How did the IC50 turn out when `CNC(=O)c1cc(-c2cc(-c3cc(NC(=O)NC4CCCCC4)c(F)cc3C)cc(OCCO)n2)ccn1` [reference compound] was run?
**A.** Its IC50 is 1000 to 10000 nM.

same assay, conditions: Homo sapiens; Table 5; read-out: HCT-116

**Q.** Which IC50 does the source give for `Cc1ccc2c(Nc3cccc(Cl)c3F)nccc2c1NC(=O)c1csc2c(N)ncnc12` [Belvarafenib, reference compound] here?
**A.** Its IC50 is 500 to 1000 nM.

test system: HPAF-II cells; assay: HPAF-II Cell Proliferation Assay; type: cell-based; settings: Homo sapiens, HPAF-II; Table 4; read-out: HPAF-II IC50
Experimental: HPAF-II cells (catalog #CRL-1997) are obtained from the American Type Culture Collect (ATCC, Manassas, VA). Briefly, cells are grown in Minimum Essential Media supplemented with 10% characterized fetal bovine serum (Invitrogen, Carlsbad, CA) and 1% Penicillin/Streptomycin/L-Glutamine at 37° C., 5% CO2, and 95% humidity. Cells are expanded until reaching 70-95% confluency at which point they are sub-cultured or harvested for assay use. A serial dilution of test compound is dispensed into a 384-well black clear bottom plate in triplicate. 750 cells are added per well in 50 μL complete growth medium in the 384-well plate. Plates are incubated for 115 to 120 h at 37° C., 5% CO2, and 95% humidity. At the end of the incubation, 40 μL of a […] solution of resazurin (Sigma, St. Louis, MO) in PBS is added to each well of the plate and plates are incubated for an additional 18 to 24 h at 37° C., 5% CO2, and 95% humidity. Plates are read on a Synergy2 or equivalent reader (Biotek, Winooski, VT) using an excitation of 540 nm and an emission of 600 nm. Data is analyzed using Prism software (Graphpad, San Diego, CA) to calculate IC50 values.

**Q.** `Cc1ccc(NC(=O)N[C@@H]2CCc3ccccc32)cc1-c1cc(OCCO)nc(N2CCOCC2)c1` [reference compound] was tested. Which IC50 did it give?
**A.** Its IC50 is 1000 to 10000 nM.

**Q.** Which IC50 does the source give for `Cc1cc(F)c(NC(=O)Nc2cnn(C(C)(C)C)c2)cc1-c1cc(OCCN(C)C)nc(N2CCOCC2)c1` [reference compound] here?
**A.** Its IC50 is 1000 to 10000 nM.

**Q.** Which IC50 does the source give for `CC(=O)Nc1cc(-c2cc(-c3cc(NC(=O)Nc4ccc(C(F)(F)F)cc4)cnc3C)ccn2)ccn1` [reference compound] here?
**A.** Its IC50 is 1000 to 10000 nM.

**Q.** `CNC(=O)c1cc(-c2cnnc(-c3cc(NC(=O)N4CCC(C(C)(C)C)C4)ccc3C)c2)ccn1` (stereo not drawn) [reference compound] was tested. Which IC50 did it give?
**A.** Its IC50 is 1000 to 10000 nM.

**Q.** `CNC(=O)c1cc(-c2cc(-c3cc(NC(=O)NC4CCCCC4)c(F)cc3C)cc(OCCO)n2)ccn1` [reference compound] was tested. Which IC50 did it give?
**A.** The IC50 was 1000 to 10000 nM.

same assay, conditions: Homo sapiens; Table 5; read-out: HPAF-II

**Q.** For `Cc1ccc2c(Nc3cccc(Cl)c3F)nccc2c1NC(=O)c1csc2c(N)ncnc12` [Belvarafenib, reference compound], which IC50 is on record?
**A.** The IC50 was 1000 to 10000 nM.

test system: tubulin; assay: Cellular Tubulin Polymerization Assay (HCT-116 cells); type: cell-based; settings: Table 4, HCT-116 cells; read-out: Tubulin Cellular IC50

**Q.** For `Cc1ccc(NC(=O)Nc2cccc(C(F)(F)F)c2)cc1-c1cc(OCCO)nc(N2CCOCC2)c1` [reference compound], which IC50 is on record?
**A.** Its IC50 is 1000 to 10000 nM.

**Q.** For `CC(=O)Nc1cc(-c2cc(-c3cc(NC(=O)Nc4ccc(C(F)(F)F)cc4)cnc3C)ccn2)ccn1` [reference compound], which IC50 is on record?
**A.** The IC50 was 1000 to 10000 nM.

**Q.** How did the IC50 turn out when `CNC(=O)c1cc(-c2cc(-c3cc(NC(=O)Nc4ccnc(C(C)(C)C#N)c4)ccc3C)ccn2)ccn1` [reference compound] was run?
**A.** Its IC50 is 1000 to 10000 nM.

same assay, conditions: read-out: Tubulin Cellular; Table 5, HCT-116 cells

**Q.** `Cc1ccc(NC(=O)N2CC[C@@H](CC(F)(F)F)C2)cc1-c1cc(N[C@H](C)CO)nc(N2CCOCC2)c1` [Exarafenib, reference compound] was tested. Which IC50 did it give?
**A.** Its IC50 is 1000 to 10000 nM.

**Q.** For `C[C@@H](NC(=O)c1ncnc(N)c1Cl)c1ncc(C(=O)Nc2cc(C(F)(F)F)c(Cl)cn2)s1` [Tovorafenib, reference compound], which IC50 is on record?
**A.** Its IC50 is 1000 to 10000 nM.

Source: patent US20260176279A1, “DUAL RAF AND TUBULIN INHIBITORS AND METHODS OF USE THEREOF” (Deciphera Pharmaceuticals, LLC, priority 2023, published 2026)
